Assays:
[1] = xn = mol fraction of the nth substance listed; settings: 298.15 K, 101 kPa, Liquid, Vibrating tube method
[2] = excess molar enthalpy (molar enthalpy of mixing); xn = mol fraction of the nth substance listed; settings: 298.15 K, 101 kPa, Liquid, Calvet calorimetry

CCCOC(=O)CC [propyl propanoate] + ClCCCCCCCl
Settings	mass density [kg/m3]
[1], x1 = 1	875.61

CCCOC(=O)CCC [propyl butanoate] + ClCCCCCl
Settings	excess molar enthalpy [kcal/mol]	mass density [kg/m3]
[1], x1 = 0.1349	–	1087.88
[1], x1 = 0.1841	–	1072.12
[1], x1 = 0.233	–	1056.97
[1], x1 = 0.2856	–	1041.17
[1], x1 = 0.3405	–	1025.23
[1], x1 = 0.3956	–	1009.76
[1], x1 = 0.5129	–	978.41
[1], x1 = 0.6385	–	947.12
[1], x1 = 0.7731	–	915.88
[1], x1 = 0.8454	–	900
[1], x1 = 0.918	–	884.64
[1], x1 = 1	–	867.9
[2], x1 = 0.0503	-0.00454	–
[2], x1 = 0.1217	-0.0117	–
[2], x1 = 0.2009	-0.0203	–
[2], x1 = 0.2826	-0.0306	–
[2], x1 = 0.3602	-0.0416	–
[2], x1 = 0.4315	-0.0516	–
[2], x1 = 0.5579	-0.0629	–
[2], x1 = 0.6248	-0.0612	–
[2], x1 = 0.699	-0.0559	–
[2], x1 = 0.7829	-0.0457	–
[2], x1 = 0.8689	-0.0301	–
[2], x1 = 0.9389	-0.0158	–

ClCCCl [1,2-dichloroethane] + CCCOC(C)=O
Settings	excess molar enthalpy [kcal/mol]	mass density [kg/m3]
[1], x2 = 0.0403	–	1224.14
[1], x2 = 0.0822	–	1202.71
[1], x2 = 0.1258	–	1181.25
[1], x2 = 0.1723	–	1159.34
[1], x2 = 0.2206	–	1137.71
[1], x2 = 0.271	–	1116.1
[1], x2 = 0.323	–	1094.66
[1], x2 = 0.3773	–	1073.38
[1], x2 = 0.435	–	1051.79
[1], x2 = 0.4925	–	1031.26
[1], x2 = 0.5542	–	1010.09
[1], x2 = 0.6231	–	987.69
[1], x2 = 0.693	–	966.04
[1], x2 = 0.7654	–	944.7
[1], x2 = 0.8389	–	924.07
[1], x2 = 0.9173	–	903.11
[2], x2 = 0.0472	-0.0155	–
[2], x2 = 0.1047	-0.0332	–
[2], x2 = 0.1719	-0.0559	–
[2], x2 = 0.2424	-0.0793	–
[2], x2 = 0.3127	-0.102	–
[2], x2 = 0.3806	-0.117	–
[2], x2 = 0.4423	-0.128	–
[2], x2 = 0.5012	-0.132	–
[2], x2 = 0.5663	-0.13	–
[2], x2 = 0.6408	-0.122	–
[2], x2 = 0.7169	-0.107	–
[2], x2 = 0.8115	-0.0784	–
[2], x2 = 0.9076	-0.0447	–

CCCOC(=O)CCC [propyl butanoate] + ClCCCCCCCl
Settings	excess molar enthalpy [kcal/mol]	mass density [kg/m3]
[1], x1 = 0.1123	–	1041.34
[1], x1 = 0.1686	–	1030.2
[1], x1 = 0.2265	–	1018.77
[1], x1 = 0.2841	–	1007.46
[1], x1 = 0.3424	–	995.99
[1], x1 = 0.4025	–	984.2
[1], x1 = 0.4598	–	973.01
[1], x1 = 0.5766	–	950.16
[1], x1 = 0.6959	–	926.91
[1], x1 = 0.755	–	915.37
[1], x1 = 0.8145	–	903.79
[1], x1 = 0.8778	–	891.49
[1], x1 = 0.9367	–	880.14
[1], x1 = 1	–	867.9
[2], x1 = 0.0619	-0.00526	–
[2], x1 = 0.1445	-0.011	–
[2], x1 = 0.2343	-0.0182	–
[2], x1 = 0.3207	-0.0258	–
[2], x1 = 0.3911	-0.0327	–
[2], x1 = 0.4594	-0.0378	–
[2], x1 = 0.5174	-0.0404	–
[2], x1 = 0.5559	-0.0411	–
[2], x1 = 0.6181	-0.0402	–
[2], x1 = 0.6903	-0.037	–
[2], x1 = 0.7651	-0.0315	–
[2], x1 = 0.849	-0.0229	–
[2], x1 = 0.9334	-0.012	–

CCCOC(C)=O [propyl ethanoate] + ClCCCCCl
Settings	mass density [kg/m3]
[1], x1 = 1	882.08

CCCOC(C)=O [propyl ethanoate] + ClCCCCCCl
Settings	mass density [kg/m3]
[1], x1 = 1	882.08

Source: the NIST ThermoML archive (doi:10.1016/j.jct.2008.10.007)
